Molecular target: T1, CCR2 (Homo sapiens, UniProt P41597)
T1 construct: Membranes were prepared from THP-1 cells; endogenous in cells; host or cells: THP-1 (human acute monocytic leukaemia cells), membrane preparation
Assay: CCR2 receptor membrane binding assay ([125I]MCP-1, THP-1 cell membranes, SPA beads)
Conditions: THP-1 membranes, [125I]MCP-1, bound radioactivity determined after 8 h; read-out: hKi
Protocol: The above exemplary substances have been tested for binding to CCR2 using a binding assay as outlined herein below:
THP-1 cells (human acute monocytic leukaemia cells) were cultured under standardized conditions at 37° C. and 5% CO2 in a humidified incubator. THP-1 cells were cultivated in RPMI 1640 medium (Gibco 21875) containing 1% MEM-NEAA (Gibso 11140) 2 mM L-glutamine, 1.5 g/L sodium bicarbonate, 4.5 g/L glucose, 10 mM HEPES and 1.0 mM sodium pyruvate, 90%; 10% fetal calf serum (FCS Gibco 10500-064).
Membranes were prepared from THP-1 cells. THP-1 cells were centrifuged at 300×g at 4° C. for 10 min. The cell pellet was resuspended in Phosphate Buffer Saline (PBS, including 10 μM Pefabloc and a protease inhibitor mix ‘complete’, Boehringer Mannheim (1 tablet/50 ml)), to a concentration of […]. The membrane preparation was performed by disrupting the cells by nitrogen […] (at 50 bar, for 1 h) in a “Nitrogen Bombe” (Parr Instrument). Cell debris was removed by centrifugation (800×g at 4° C., 1 min). The supernatant was centrifuged at 80000×g, 4° C. for 30 min to sediment the cell membranes. Usually 50 mg of protein (Bradford assay) were yielded from 1×10E9 cells. The membranes were resuspended in 25 mM HEPES, 25 mM MgCl2, 1 mM CaCl2, 10% Glycerine for storage in aliquots at −80° C. in 25 mM HEPES, 25 mM MgCl2, 1 mM CaCl2, 10% Glycerine and stored at −80° C.
Receptor Membrane Binding Assay:
Perkin Elmer NEX 332 Jod 125 MCP-1, Stock: 2200 Ci/mmol solved in […] assay buffer, stored at −20° C. THP-1 membrane were adjusted with 25 mM HEPES, pH 7.2; 5 mM MgCl2; 0.5 mM CaCl2; 0.2% BSA assay buffer to a concentration of 2.5 μg/15 μl. Amersham Biosciences PVT-WGA Beads (RPNQ0001) were adjusted with assay buffer to a concentration of 0.24 mg/30 μl. For preparation of the membrane-bead-suspension membranes and beads were incubated for 30 min at RT under rotation (60 rpm) with a ratio of 1:2. Test compounds dissolved in 100% DMSO to a concentration of 10 mM and are further diluted with 100% DMSO to 1 mM. All additional compound dilutions were obtained with assay buffer, final 1% DMSO. Compounds, membrane-bead-suspension and [^125I]MCP-1 (ca. 25000 cpm/10 μl) were incubated. Bound radioactivity was determined by scintillation counter after 8 h. Determination of affinity of test compounds (dissociation constant hKi) is calculated by iterative fitting of experimental data using the “easy sys” program, which is based on law of mass action (Schittkowski K. (1994), Numerische Mathematik, Vol. 68, 129-142).

T1 sequence (P41597 whole entry): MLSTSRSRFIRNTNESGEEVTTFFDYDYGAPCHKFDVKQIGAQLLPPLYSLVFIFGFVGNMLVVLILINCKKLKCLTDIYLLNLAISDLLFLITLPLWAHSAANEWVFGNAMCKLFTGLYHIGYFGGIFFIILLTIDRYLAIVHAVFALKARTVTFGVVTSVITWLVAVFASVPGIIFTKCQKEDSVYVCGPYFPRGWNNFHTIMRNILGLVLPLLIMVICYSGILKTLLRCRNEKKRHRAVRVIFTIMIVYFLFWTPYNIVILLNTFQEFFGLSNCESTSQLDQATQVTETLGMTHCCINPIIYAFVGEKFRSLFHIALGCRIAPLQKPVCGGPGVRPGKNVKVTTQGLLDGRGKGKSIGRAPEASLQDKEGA

| Compound | Ki [nM] |
| --- | --- |
| Cc1c(C(=O)N2CCCN(CCO)CC2)ncnc1N1CCc2ccc(C(F)(F)F)cc2C1 [Example 76] | 3400 |
| COC1COCCC1NC1CCN(C(=O)c2ncnc(N3CCC4(CCc5ccccc54)CC3)c2C)CC1 (stereo not shown) [Example 62] | 590 |
| Cc1c(C(=O)N2CCC(N3CCC(N(C)S(C)(=O)=O)CC3)CC2)ncnc1N1CCC2(CCc3ccccc32)CC1 [Example 6] | 1640 |
| Cc1c(C(=O)N2CCC(N3CCC(N(C)S(C)(=O)=O)CC3)CC2)ncnc1N1CCC(c2ccccc2F)C1 (stereo not shown) [Example 44] | 3920 |
| COc1ccc(C2CCN(c3ncnc(C(=O)N4CCC(NC5CCOCC5OC)CC4)c3C)CC2)cc1 (stereo not shown) [Example 14] | 1610 |
| COC1COCCC1NC1CCN(C(=O)c2ncnc(N3CCc4ccc(C#N)cc4C3)c2C)CC1 (stereo not shown) [Example 55] | 235 |
| Cc1c(C(=O)N2CCC(N3CCC(N(C)S(C)(=O)=O)CC3)CC2)ncnc1N1CCCCC1c1cccc(Cl)c1 (stereo not shown) [Example 35] | 2860 |
| Cc1c(C(=O)N2CCC(N3CCC(N(C)S(C)(=O)=O)CC3)CC2)ncnc1N1CCC(c2ccc(Cl)cc2)C1 (stereo not shown) [Example 47] | 1100 |
| COC1COCCC1NC1CCN(C(=O)c2ncnc(N3CCc4ccc(Cl)cc4C3)c2C)CC1 (stereo not shown) [Example 10] | 14 |
| COc1c(C(=O)N2CCC(N3CCC(N(C)S(C)(=O)=O)CC3)CC2)ncnc1N1CCc2ccc(C(F)(F)F)cc2C1 [Example 68] | 50 |
| Cc1c(C(=O)N2CCC(N3CCC(N(C)S(C)(=O)=O)CC3)CC2)ncnc1N1CCC(c2ccc(Cl)cc2)CC1 [Example 26] | 1970 |
| COC1COCCC1NC1CCN(C(=O)c2ncnc(N3CCc4ccc(F)cc4C3)c2C)CC1 (stereo not shown) [Example 7] | 27 |
| Cc1c(C(=O)N2CCC(N3CCC(c4cccc(C(=O)O)c4)CC3)CC2)ncnc1N1CCc2ccc(C(F)(F)F)cc2C1 [Example 83] | 698 |
| Cc1c(C(=O)N2CCC(N3CCC(N(C)S(C)(=O)=O)CC3)CC2)ncnc1N1CCC(c2ccc(C(F)(F)F)cc2)CC1 [Example 17] | 1050 |
| COC1COCCC1NC1CCN(C(=O)c2ncnc(N3Cc4ccc(C(F)(F)F)cc4C3)c2C)CC1 (stereo not shown) [Example 43] | 49 |
| COC1COCCC1NC1CCN(C(=O)c2ncnc(N3CCc4cccc(C(F)(F)F)c4C3)c2C)CC1 (stereo not shown) [Example 2] | 507 |
| CO[C@@H]1COCC[C@@H]1N(C)C1CCN(C(=O)c2ncnc(N3CCc4ccc(C(F)(F)F)cc4C3)c2C)CC1 [Example 85] | 5 |
| Cc1c(C(=O)N2CCC(N3CCC(NS(C)(=O)=O)CC3)CC2)ncnc1N1CCc2ccc(C(F)(F)F)cc2C1 [Example 37] | 18 |
| CO[C@@H]1COCC[C@@H]1NC1CCN(C(=O)c2ncnc(N3CCc4ccc(C(F)(F)F)cc4C3)c2C)CC1 [Example 63] | 4 |
| COC1COCCC1NC1CCN(C(=O)c2ncnc(N3CCOC(c4ccccc4)C3)c2C)CC1 (stereo not shown) [Example 5] | 4170 |
| Cc1ccc(C2CCN(c3ncnc(C(=O)N4CCC(N5CCC(N(C)S(C)(=O)=O)CC5)CC4)c3C)CC2)cc1 [Example 24] | 1300 |
| Cc1c(C(=O)N2CCC(N3CCC(N(C)S(C)(=O)=O)CC3)CC2)ncnc1N1CCC(c2ccc(C(F)(F)F)cc2)C1 (stereo not shown) [Example 45] | 1170 |
| COC1COCCC1NC1CCN(C(=O)c2ncnc(N3CCCc4ccccc4C3)c2C)CC1 (stereo not shown) [Example 58] | 4240 |
| COC1COCCC1NC1CCN(C(=O)c2ncnc(N3CCC(c4cccc(C(F)(F)F)c4)C3)c2C)CC1 (stereo not shown) [Example 52] | 270 |

Further lines, results first:

| Ki [nM] | Compound |
| --- | --- |
| 257 | COC1COCCC1NC1CCN(C(=O)c2ncnc(N3CCN(c4cccc(C)c4)CC3)c2C)CC1 (stereo not shown) [Example 62af] |
| 34 | COC1COCCC1NC1CCN(C(=O)c2ncnc(N3CCN(c4c(C)cccc4C)CC3)c2C)CC1 (stereo not shown) [Example 62ai] |
| 128 | COC1COCCC1NC1CCN(C(=O)c2ncnc(N3CCN(c4ccc(Cl)c(Cl)c4)CC3)c2C)CC1 (stereo not shown) [Example 62al] |
| 40 | COC1COCCC1NC1CCN(C(=O)c2ncnc(N3CCN(c4ccc(Cl)cc4Cl)CC3)c2C)CC1 (stereo not shown) [Example 62ag] |
| 1080 | COC1COCCC1NC1CCN(C(=O)c2ncnc(N3CCC4CC4(c4ccc(Br)cc4)C3)c2C)CC1 (stereo not shown) [Example 62o] |
| 29 | Cc1c(C(=O)N2CCC(NC3CCOCC3F)CC2)ncnc1N1CCc2ccc(C(F)(F)F)cc2C1 (stereo not shown) [Example 69k] |
| 10 | Cc1c(C(=O)N2CCC(N[C@H]3CCOC[C@H]3F)CC2)ncnc1N1COc2ccc(C(F)(F)F)cc2C1 [Example 69o] |
| 983 | COC1COCCC1NC1CCN(C(=O)c2ncnc(N3CCC4(CC3)CC(=O)c3ccccc3O4)c2C)CC1 (stereo not shown) [Example 62h] |
| 119 | COC1COCCC1NC1CCN(C(=O)c2ncnc(N3CCN(c4ccc(C(F)(F)F)cc4)CC3)c2C)CC1 (stereo not shown) [Example 62p] |
| 11 | COc1c(C(=O)N2CCC(N[C@H]3CCOC[C@H]3OC)CC2)ncnc1N1CCc2ccc(OC(F)(F)F)cc2C1 [Example 69d] |
| 96 | Cc1c(C(=O)N2CCC(N[C@H]3CCOC[C@H]3F)CC2)ncnc1N1CCc2ccc(Br)cc2C1 [Example 69ac] |
| 18 | COC1COCCC1NC1CCN(C(=O)c2ncnc(N3CCN(c4cccc(Cl)c4Cl)CC3)c2C)CC1 (stereo not shown) [Example 62x] |
| 780 | COC1COCCC1NC1CCN(C(=O)c2ncnc(N3CCN(c4ccc5c(c4)OCO5)CC3)c2C)CC1 (stereo not shown) [Example 62q] |
| 566 | CO[C@@H]1COCC[C@@H]1NC1CCN(C(=O)c2cc(N3CCc4ccc(C(F)(F)F)cc4C3)ncn2)CC1 [Example 62a] |
| 351 | COC1COCCC1NC1CCN(C(=O)c2ncnc(N3CC4CC4(c4cc(C(F)(F)F)cc(C(F)(F)F)c4)C3)c2C)CC1 (stereo not shown) [Example 62c] |
| 35 | COC1COCCC1NC1CCN(C(=O)c2ncnc(N3CCN(c4c(Cl)cncc4Cl)CC3)c2C)CC1 (stereo not shown) [Example 62aj] |
| 30 | CO[C@@H]1COCC[C@@H]1NC1CCN(C(=O)c2ccnc(N3CCc4ccc(C(F)(F)F)cc4C3)c2C)CC1 [Example 69a] |
| 7 | CO[C@@H]1COCC[C@@H]1NC1CCN(C(=O)c2ncnc(N3CCc4ccc(Br)cc4C3)c2C)CC1 [Example 69y] |
| 1000 | COC1COCCC1NC1CCN(C(=O)c2ncnc(N3CCn4cc(C(F)(F)F)nc4C3)c2C)CC1 (stereo not shown) [Example 62ac] |
| 17 | CO[C@@H]1COCC[C@@H]1NC1CCN(C(=O)c2ncnc(N3CCc4ccc(C)cc4C3)c2C)CC1 [Example 69f] |
| 24 | Cc1c(C(=O)N2CCC(N[C@H]3CCOC[C@H]3F)CC2)ncnc1N1CCc2ccc(C(F)(F)F)cc2C1 [Example 69n] |
| 411 | COC1COCCC1NC1CCN(C(=O)c2ncnc(N3CCN(c4ncnc5scc(C)c45)CC3)c2C)CC1 (stereo not shown) [Example 62r] |
| 5140 | COC1COCCC1NC1CCN(C(=O)c2ncnc(N3CCn4c(-c5ccccc5)cnc4C3)c2C)CC1 (stereo not shown) [Example 62s] |
| 49 | COc1cc(N2CCN(c3ncnc(C(=O)N4CCC(NC5CCOCC5OC)CC4)c3C)CC2)cc(C(F)(F)F)c1 (stereo not shown) [Example 62ae] |
| 7 | Cc1c(C(=O)N2CCC(NC3CCOCC3)CC2)ncnc1N1CCc2ccc(C(F)(F)F)cc2C1 [Example 69r] |
| 516 | COC1COCCC1NC1CCN(C(=O)c2ncnc(N3CCCN(c4ccc(Cl)cc4)CC3)c2C)CC1 (stereo not shown) [Example 62j] |
| 305 | COC1COCCC1NC1CCN(C(=O)c2ncnc(N3CCCN(c4ccccc4C)CC3)c2C)CC1 (stereo not shown) [Example 62d] |
| 192 | COC1COCCC1NC1CCN(C(=O)c2ncnc(N3CCCC(c4ccccc4)CC3)c2C)CC1 (stereo not shown) [Example 62n] |
